In brackets after ≈: the same amount, converted by molar mass.
Test system: Clostridium difficile (Isolate ID ATCC 9689)
Test: Bacterial Assay: Determination of Antibacterial Activity (MIC, broth microdilution or agar dilution)
Type: cell-based
Conditions: Clostridioides difficile, ATCC9689, 48 h, read-out: C. difficile MIC Activity Range
Protocol: Bacterial Assay: Determination of Antibacterial Activity Compounds of the invention were tested for antimicrobial activity by susceptibility testing in liquid or on solid media. Minimum inhibitory concentrations (MICs) for compounds against each strain were determined by the broth microdilution or agar dilution method according to the guidelines of the Clinical Laboratories and Standards Institute, formerly the National Committee for Clinical Laboratory Standards (Clinical Laboratories and Standards Institute. Methods for Dilution Antimicrobial Susceptibility Tests for Bacteria That Grow Anaerobically; Approved Standard-Seventh Edition. Document M11-A7, CLSI, Wayne, Pa., 2007, Clinical Laboratories and Standards Institute). Briefly MICs were determined by visible inspection after 48 hours of growth in the presence of compounds, cultures were grown at 37° C. in anaerobic gas packs using reinforced clostridial medium supplemented with 0.1% defribrinated horse blood. The bacterial strains tested include C. difficile (Clostridium difficile (Isolate ID ATCC 9689)) (Table 2) and two drug resistant clinical isolates (Clostridium difficile (Isolate ID BI-9) and Clostridium difficile (Isolate ID 027-01) (Table 3).
MICs were determined to be within the activity ranges “A” activity≦1.01 μg/mL; “B” activity>1.0 μg/mL-4.0 μg/mL; “C” activity>4.0 μg/mL-16 μg/mL

| SMILES | MIC [µg/mL] |
| --- | --- |
| COc1ccc(C#Cc2csc(COc3ccc(F)c(C(N)=O)c3F)n2)cc1 [Compound 197, 2,6-difluoro-3-({4-[(4-methoxyphenyl)ethynyl]-1,3-thiazol-2-yl}methoxy)benzamide] | < 1.01 |
| Cc1ccc(CN(CCCCOc2ccc(OC(F)(F)F)cc2)c2ccc(F)c(C(N)=O)c2F)cn1 [Compound 185, 2,6-difluoro-3-([(6-methylpyridin-3-yl)methyl]{4-[4-(trifluoromethoxy)phenoxy]butyl}amino)benzamide] | 4 to 16 (≈ 7.85 to 31.4 µM) |
| CNCNC(=O)c1c(F)ccc(OC(C)c2nc(-c3ccc(OC(F)(F)F)cc3)c(Cl)o2)c1F (stereo not drawn) [Compound 35, 3-(1-{5-chloro-4-[4-(trifluoromethoxy)phenyl]-1,3-oxazol-2-yl}ethoxy)-2,6-difluoro-N-[(methylamino)methyl]benzamide] | < 1.01 |
| NC(=O)c1c(F)ccc(OCc2nc(-c3ccc(Cl)c(O)c3)cs2)c1F [Compound 196, 3-{[4-(4-chloro-3-hydroxyphenyl)-1,3-thiazol-2-yl]methoxy}-2,6-difluorobenzamide] | 1 to 4 (≈ 2.52 to 10.1 µM) |
| CC(Oc1ccc(F)c(C(N)=O)c1F)c1nc(-c2ccc(C(F)(F)F)cc2)c(Br)o1 (stereo not drawn) [Compound 29, 3-(1-{5-bromo-4-[4-(trifluoromethyl)phenyl]-1,3-oxazol-2-yl}ethoxy)-2,6-difluorobenzamide] | < 1.01 |
| NC(=O)c1c(F)ccc(OCc2nc(-c3ccc(S(F)(F)(F)(F)F)cc3)no2)c1F [Compound 120, 2,6-difluoro-3-({3-[4-(pentafluoro-lambda~6~- sulfanyl)phenyl]-1,2,4-oxadiazol-5-yl}methoxy)benzamide] | 4 to 16 (≈ 8.75 to 35 µM) |
| NC(=O)c1c(F)ccc(OCCCCOc2cccc(C(F)(F)F)c2)c1F [Compound 165, 2,6-difluoro-3-{4-[3-(trifluoromethyl)phenoxy]butoxy}benzamide] | 1 to 4 (≈ 2.57 to 10.3 µM) |
| NC(=O)c1c(F)ccc(OCCc2nc(-c3ccc(S(F)(F)(F)(F)F)cc3)no2)c1F [Compound 118, 2,6-difluoro-3-(2-{3-[4-(pentafluoro-lambda~6~- sulfanyl)phenyl]-1,2,4-oxadiazol-5-yl}ethoxy)benzamide] | < 1.01 |
| NC(=O)CN(CCCCOc1ccc(OC(F)(F)F)cc1)c1ccc(F)c(C(N)=O)c1F [Compound 183, 3-[(2-amino-2-oxoethyl){4-[4-(trifluoromethoxy)phenoxy]butyl}amino]-2,6-difluorobenzamide] | 4 to 16 (≈ 8.67 to 34.7 µM) |
| COc1ccc(-c2nc(C(C)Oc3ccc(F)c(C(N)=O)c3F)oc2Br)cc1 (stereo not drawn) [Compound 24, 3-{1-[5-bromo-4-(4-methoxyphenyl)-1,3-oxazol-2-yl]ethoxy}-2,6-difluorobenzamide] | < 1.01 |
| CCOC(=O)c1ccc(OCCCCOc2ccc(F)c(C(N)=O)c2F)cc1 [Compound 138, ethyl 4-[4-(3-carbamoyl-2,4-difluorophenoxy)butoxy]benzoate] | < 1.01 |
| CC(C)(C)c1ccc(OCCCCOc2ccc(F)c(C(N)=O)c2F)cc1 [Compound 175, 3-[4-(4-tert-butylphenoxy)butoxy]-2,6-difluorobenzamide] | < 1.01 |
| COC(=O)CCNC(=O)OCC(Oc1ccc(F)c(C(N)=O)c1F)c1nc(-c2ccc(C(F)(F)F)cc2)c(Br)o1 (stereo not drawn) [Compound 54, methyl N-{[2-{5-bromo-4-[4-(trifluoromethyl)phenyl]-1,3-oxazol-2-yl}-2-(3-carbamoyl-2,4-difluorophenoxy)ethoxy]carbonyl}-beta-alaninate] | 1 to 4 (≈ 1.57 to 6.29 µM) |
| CN(Cc1ccncn1)C(=O)OCC(Oc1ccc(F)c(C(N)=O)c1F)c1nc(-c2ccc(C(F)(F)F)cc2)c(Br)o1 (stereo not drawn) [Compound 75, 2-{5-bromo-4-[4-(trifluoromethyl)phenyl]-1,3-oxazol-2-yl}-2-(3-carbamoyl-2,4-difluorophenoxy)ethyl methyl(pyrimidin-4-ylmethyl)carbamate] | 1 to 4 (≈ 1.52 to 6.09 µM) |
| NC(=O)c1c(F)ccc(OCCOCCOc2ccc(OC(F)(F)F)cc2)c1F [Compound 145, 2,6-difluoro-3-(2-{2-[4-(trifluoromethoxy)phenoxy]ethoxy}ethoxy) benzamide] | < 1.01 |

Reference: patent US20170305943A1, “COMPOUNDS FOR THE TREATMENT OF BACTERIAL INFECTIONS” (priority 2014, published 2017)
